Usually solubility stands for the dissolved amount per volume that the medium holds.

Converted amounts (≈) assume the structure as drawn. Where two headings read alike, the source gives them in different places. Starred links: 1 amine or outer side, 2 acyl side, 3 side chain; linkers in the order of their positions; H or OH if unused. Positions of bridges follow the written chain, without caps; N, C: chain ends. Residues, ends and D or L forms follow the SMILES beside them. *: point of attachment. C18 diacid = O=C(O)CCCCCCCCCCCCCCCCC(=O)*; γGlu = O=C(O)[C@H](CCC(=O)[*:2])N[*:1]; AEEA = NCCOCCOCC(=O)O

Results on 5 molecules are retold here after patent US20240209028A1, “CNP COMPOUNDS” (priority 2022, published 2024).

A short description of data set [1]: Solubility of CNP compounds at pH 4.0 and pH 6.5. It counts as physicochemical. In outline: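 Supernatant peptide concentration was quantified by CAD after overnight room-temperature equilibration of incompletely dissolved samples. Nominal loading was ≥4000-5000 nmol/mL. Media were pH 4.0 sodium acetate 5 mM/glycerol 250 mM, or pH 6.5 sodium phosphate 8 mM/glycerol 23 mg/mL reached by stepwise NaOH addition.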

The target of data set [2] is T1, human natriuretic peptide receptor 2 (hNPR2) (Homo sapiens, UniProt P20594).
T1 construct: expressed in transfected cells; host or cells: HEK293 (ATCC CRL-1573), clone 35, co-transfected with pGloSensor-42F
T1 sequence (P20594 23-1047): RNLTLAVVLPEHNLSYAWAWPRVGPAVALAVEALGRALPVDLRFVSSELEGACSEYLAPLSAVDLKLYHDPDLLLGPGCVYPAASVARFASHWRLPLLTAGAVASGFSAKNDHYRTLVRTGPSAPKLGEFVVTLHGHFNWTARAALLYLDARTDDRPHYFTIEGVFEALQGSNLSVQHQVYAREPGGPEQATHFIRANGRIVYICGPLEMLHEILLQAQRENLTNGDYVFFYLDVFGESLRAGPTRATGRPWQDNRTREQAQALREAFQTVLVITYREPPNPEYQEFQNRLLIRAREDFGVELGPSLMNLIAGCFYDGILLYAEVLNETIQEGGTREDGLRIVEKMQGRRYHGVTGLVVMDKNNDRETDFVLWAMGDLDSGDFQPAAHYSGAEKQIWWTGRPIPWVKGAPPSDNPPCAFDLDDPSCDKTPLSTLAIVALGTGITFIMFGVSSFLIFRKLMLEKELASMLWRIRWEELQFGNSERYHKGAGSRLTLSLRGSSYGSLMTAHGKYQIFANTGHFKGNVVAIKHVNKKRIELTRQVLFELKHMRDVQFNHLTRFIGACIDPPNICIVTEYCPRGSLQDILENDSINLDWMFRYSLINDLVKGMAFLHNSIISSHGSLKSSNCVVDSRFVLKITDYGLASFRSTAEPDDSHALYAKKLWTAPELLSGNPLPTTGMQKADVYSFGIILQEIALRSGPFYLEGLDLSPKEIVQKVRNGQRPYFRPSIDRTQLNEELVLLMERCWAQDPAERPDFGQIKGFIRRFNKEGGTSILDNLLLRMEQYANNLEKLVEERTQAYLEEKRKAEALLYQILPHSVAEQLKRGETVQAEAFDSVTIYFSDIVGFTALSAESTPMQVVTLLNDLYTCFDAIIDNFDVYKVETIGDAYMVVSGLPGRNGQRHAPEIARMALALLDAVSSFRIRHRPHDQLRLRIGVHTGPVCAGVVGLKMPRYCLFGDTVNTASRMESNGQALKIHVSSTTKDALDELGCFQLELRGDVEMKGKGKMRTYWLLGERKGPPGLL
The data set is described as follows: In vitro hNPR2 activity assay (cGMP GloSensor reporter, HEK293). It counts as cell-based. Conditions: potency relative to CNP22 (0065). In outline: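 Potency is the EC50 from a four-parameter logistic fit, also expressed relative to the in-plate CNP22 control (×100), with at least two replicates. Compounds (ten concentrations, […], HSA-free diluent with 1% OVA, 0.01% Tween20) were incubated 30 min at 37 °C on HEK293 cells co-expressing hNPR2 and a GloSensor cGMP luciferase. Luminescence detected with Bright-Glo.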

The mark [3] stands for this setting: 8 mM sodium phosphate, 23 mg/mL glycerol, pH 6.5, room temperature, read-out: Solubility at pH 6.5.

Consider `CC[C@H](C)[C@@H]1NC(=O)[C@H](CCCNC(=N)N)NC(=O)[C@H](CC(=O)O)NC(=O)[C@H](CC(C)C)NC(=O)[C@@H]2CCCN2C(=O)[C@H](CC(C)C)NC(=O)CNC(=O)[C@H](Cc2ccccc2)NC(=O)[C@@H](NC(=O)CNC(=O)[C@H](CCC(N)=O)NC(=O)[C@H](CO)NC(=O)[C@H](CC(C)C)NC(=O)CNC(=O)[C@H](CCCCN)NC(=O)[C@H](CCCCN)NC(=O)[C@H](CCC(N)=O)NC(=O)[C@H](C)NC(=O)CNC(=O)[C@H](CCCCN)NC(=O)[C@H](Cc2ccc(O)cc2)NC(=O)[C@H](CCCCN)NC(=O)[C@H](CCCNC(=N)N)NC(=O)[C@H](C)NC(=O)[C@H](CCC(N)=O)NC(=O)[C@@H]2CCCN2C(=O)[C@H](Cc2c[nH]cn2)NC(=O)[C@H](CCC(=O)O)NC(=O)[C@H](CCC(N)=O)NC(=O)COCCOCCNC(=O)COCCOCCNC(=O)CC[C@H](NC(=O)CC[C@H](NC(=O)CC[C@H](NC(=O)CC[C@H](NC(=O)CC[C@H](NC(=O)CC[C@H](NC(=O)CCCCCCCCCCCCCCCCC(=O)O)C(=O)O)C(=O)O)C(=O)O)C(=O)O)C(=O)O)C(=O)O)CSSC[C@@H](C(=O)O)NC(=O)CNC(=O)[C@H](CC(C)C)NC(=O)CNC(=O)[C@H](CO)NC(=O)[C@H](CC(C)C)NC(=O)[C@H](CO)NC(=O)CNC1=O` [compound 1402] ({C18 diacid-γGlu-γGlu-γGlu-γGlu-γGlu-γGlu-AEEA-AEEA}-QEHPQARKYKGAQKKGLSQGCFGLPLDRIGSLSGLGC-OH; disulfide 21-37), for which, in data set [1] (setting [3]), the solubility worked out at 10 mM (≈ 53 mg/mL). Moreover, in data set [2], the “hNPR2 0% HSA. [EC50% rel CNP]” value is 57.6%.
For `CC[C@H](C)[C@@H]1NC(=O)[C@H](CCCNC(=N)N)NC(=O)[C@H](CC(=O)O)NC(=O)[C@H](CC(C)C)NC(=O)[C@@H]2CCCN2C(=O)[C@H](CC(C)C)NC(=O)CNC(=O)[C@H](Cc2ccccc2)NC(=O)[C@@H](NC(=O)CNC(=O)[C@H](CCC(N)=O)NC(=O)[C@H](CO)NC(=O)[C@H](CC(C)C)NC(=O)CNC(=O)[C@H](CCCCN)NC(=O)[C@H](CCCCN)NC(=O)[C@H](CCC(N)=O)NC(=O)[C@H](C)NC(=O)CNC(=O)[C@H](CCCCN)NC(=O)[C@H](Cc2ccc(O)cc2)NC(=O)[C@H](CCCCN)NC(=O)[C@H](CCCNC(=N)N)NC(=O)[C@H](C)NC(=O)[C@H](CCC(N)=O)NC(=O)[C@@H]2CCCN2C(=O)[C@H](Cc2c[nH]cn2)NC(=O)[C@H](CCC(=O)O)NC(=O)[C@H](CCC(N)=O)NC(=O)COCCOCCNC(=O)COCCOCCNC(=O)COCCOCCNC(=O)COCCOCCNC(=O)CC[C@H](NC(=O)CC[C@H](NC(=O)CC[C@H](NC(=O)CC[C@H](NC(=O)CC[C@H](NC(=O)CC[C@H](NC(=O)CCCCCCCCCCCCCCCCC(=O)O)C(=O)O)C(=O)O)C(=O)O)C(=O)O)C(=O)O)C(=O)O)CSSC[C@@H](C(=O)O)NC(=O)CNC(=O)[C@H](CC(C)C)NC(=O)CNC(=O)[C@H](CO)NC(=O)[C@H](CC(C)C)NC(=O)[C@H](CO)NC(=O)CNC1=O` [compound 1404] ({C18 diacid-γGlu-γGlu-γGlu-γGlu-γGlu-γGlu-AEEA-AEEA-AEEA-AEEA}-QEHPQARKYKGAQKKGLSQGCFGLPLDRIGSLSGLGC-OH; disulfide 21-37), in that order: 6.88 mM (≈ 38.4 mg/mL) and 81.3%.
For `CC[C@H](C)[C@@H]1NC(=O)[C@H](CCCNC(=N)N)NC(=O)[C@H](CC(=O)O)NC(=O)[C@H](CC(C)C)NC(=O)[C@@H]2CCCN2C(=O)[C@H](CC(C)C)NC(=O)CNC(=O)[C@H](Cc2ccccc2)NC(=O)[C@@H](NC(=O)CNC(=O)[C@H](CCC(N)=O)NC(=O)[C@H](CO)NC(=O)[C@H](CC(C)C)NC(=O)CNC(=O)[C@H](CCCCN)NC(=O)[C@H](CCCCN)NC(=O)[C@H](CCC(N)=O)NC(=O)[C@H](C)NC(=O)CNC(=O)[C@H](CCCCN)NC(=O)[C@H](Cc2ccc(O)cc2)NC(=O)[C@H](CCCCN)NC(=O)[C@H](CCCNC(=N)N)NC(=O)[C@H](C)NC(=O)[C@H](CCC(N)=O)NC(=O)[C@@H]2CCCN2C(=O)[C@H](Cc2c[nH]cn2)NC(=O)[C@H](CCC(=O)O)NC(=O)[C@H](CCC(N)=O)NC(=O)COCCOCCNC(=O)COCCOCCNC(=O)COCCOCCNC(=O)COCCOCCNC(=O)CC[C@H](NC(=O)CC[C@H](NC(=O)CC[C@H](NC(=O)CC[C@H](NC(=O)CC[C@H](NC(=O)CCCCCCCCCCCCCCCCC(=O)O)C(=O)O)C(=O)O)C(=O)O)C(=O)O)C(=O)O)CSSC[C@@H](C(=O)O)NC(=O)CNC(=O)[C@H](CC(C)C)NC(=O)CNC(=O)[C@H](CO)NC(=O)[C@H](CC(C)C)NC(=O)[C@H](CO)NC(=O)CNC1=O` [compound 1406] ({C18 diacid-γGlu-γGlu-γGlu-γGlu-γGlu-AEEA-AEEA-AEEA-AEEA}-QEHPQARKYKGAQKKGLSQGCFGLPLDRIGSLSGLGC-OH; disulfide 21-37), in that order: 5.67 mM (≈ 30.9 mg/mL) and 59.1%.
On to `CC[C@H](C)[C@@H]1NC(=O)[C@H](CCCNC(=N)N)NC(=O)[C@H](CC(=O)O)NC(=O)[C@H](CC(C)C)NC(=O)[C@@H]2CCCN2C(=O)[C@H](CC(C)C)NC(=O)CNC(=O)[C@H](Cc2ccccc2)NC(=O)[C@@H](NC(=O)CNC(=O)[C@H](CCCCN)NC(=O)[C@H](CO)NC(=O)[C@@H](NC(=O)CNC(=O)[C@@H](NC(=O)[C@H](Cc2c[nH]cn2)NC(=O)[C@H](CCC(N)=O)NC(=O)[C@H](C)NC(=O)CNC(=O)[C@H](Cc2c[nH]cn2)NC(=O)[C@H](Cc2ccc(O)cc2)NC(=O)[C@H](CCCCN)NC(=O)[C@H](CCCNC(=N)N)NC(=O)[C@H](C)NC(=O)COCCOCCNC(=O)COCCOCCNC(=O)CC[C@H](NC(=O)CC[C@H](NC(=O)CC[C@H](NC(=O)CCCCCCCCCCCCCCCCC(=O)O)C(=O)O)C(=O)O)C(=O)O)[C@@H](C)O)C(C)C)CSSC[C@@H](C(=O)O)NC(=O)CNC(=O)[C@H](CC(C)C)NC(=O)CNC(=O)[C@H](CO)NC(=O)[C@H](CC(C)C)NC(=O)[C@H](CO)NC(=O)CNC1=O` [compound 1420] ({C18 diacid-γGlu-γGlu-γGlu-AEEA-AEEA}-ARKYHGAQHTGVSKGCFGLPLDRIGSLSGLGC-OH; disulfide 16-32), for which the solubility in data set [1] (setting [3]) stood at 1.41 mM (≈ 6 mg/mL). Also, the “hNPR2 0% HSA. [EC50% rel CNP]” value in data set [2] stood at 87.5%.
`CC[C@H](C)[C@@H]1NC(=O)[C@H](CCCNC(=N)N)NC(=O)[C@H](CC(=O)O)NC(=O)[C@H](CC(C)C)NC(=O)[C@@H]2CCCN2C(=O)[C@H](CC(C)C)NC(=O)CNC(=O)[C@H](Cc2ccccc2)NC(=O)[C@@H](NC(=O)CNC(=O)[C@H](CO)NC(=O)[C@H](CO)NC(=O)[C@@H](NC(=O)CNC(=O)[C@H](CCCCN)NC(=O)[C@H](CCCCN)NC(=O)[C@H](CCC(N)=O)NC(=O)[C@H](C)NC(=O)CNC(=O)[C@H](Cc2c[nH]cn2)NC(=O)[C@H](Cc2ccc(O)cc2)NC(=O)[C@H](CCCCN)NC(=O)[C@H](CCCNC(=N)N)NC(=O)[C@H](C)NC(=O)COCCOCCNC(=O)COCCOCCNC(=O)CC[C@H](NC(=O)CC[C@H](NC(=O)CC[C@H](NC(=O)CCCCCCCCCCCCCCCCC(=O)O)C(=O)O)C(=O)O)C(=O)O)C(C)C)CSSC[C@@H](C(=O)O)NC(=O)CNC(=O)[C@H](CC(C)C)NC(=O)CNC(=O)[C@H](CO)NC(=O)[C@H](CC(C)C)NC(=O)[C@H](CO)NC(=O)CNC1=O` [compound 1422] ({C18 diacid-γGlu-γGlu-γGlu-AEEA-AEEA}-ARKYHGAQKKGVSSGCFGLPLDRIGSLSGLGC-OH; disulfide 16-32): in data set [1] (5 mM sodium acetate, 250 mM glycerol, pH 4.0, room temperature, read-out: Solubility at pH 4.0), the solubility came out at 8.29 mM (≈ 35.1 mg/mL). In data set [2], the “hNPR2 0% HSA. [EC50% rel CNP]” value turned out to be 75.3%.
